Data on one molecule can be found in patent US12605451B2, “Targeted plasma protein degradation” (Novartis AG, priority 2020, dated 2026).

One assay deals with T1, FHR3 (Homo sapiens, UniProt Q02985).
T1 construct: Purified FHR3 with C-terminal biotinylated Avitag was used for the assay
T1 sequence (Q02985 19-330): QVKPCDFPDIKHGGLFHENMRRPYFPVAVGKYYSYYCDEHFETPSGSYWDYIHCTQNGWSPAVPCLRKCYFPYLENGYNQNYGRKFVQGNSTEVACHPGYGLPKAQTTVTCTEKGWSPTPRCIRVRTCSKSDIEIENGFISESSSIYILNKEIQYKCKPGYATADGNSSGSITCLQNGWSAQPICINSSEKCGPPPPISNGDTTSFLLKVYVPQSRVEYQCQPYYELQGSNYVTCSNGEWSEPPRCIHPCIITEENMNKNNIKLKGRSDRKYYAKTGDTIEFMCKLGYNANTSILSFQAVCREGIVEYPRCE
The assay can be described thus: SPR binding to biotinylated FHR3 (Proteon XPR36). The conditions noted are these: Bifunctional Compound. The method, then:
SPR was used to obtain the binding data for FHR3 receptor ligands compounds (C12), (C13), (C14), (C15) and (C16), either alone or as part of the bifunctional compounds (BFC13), (BFC14), (BFC15), (BFC16) and (BFC17), respectively.
SPR Binding experiments were performed on a Proteon XPR36 instrument (Bio-Rad Laboratories). Purified FHR3 with C-terminal biotinylated Avitag was used for the assay. Biotinylated FHR3 was incubated with fivefold molar excess of bifunctional compounds (BFC13), (BFC14), (BFC15), (BFC16) or (BFC17), or compounds (C12), (C13), (C14), (C15) or (C16), and immobilized onto a Neutravidin coated sensor chip. (NLC chip, Bio-Rad Laboratories, Inc). […]
To perform sandwich SPR binding assays, His-ASGPR1 (62-291) protein stocks were diluted with running buffer to a desired concentration. […] Sensorgrams were recorded for association and dissociation phases. All sensorgrams were processed by subtracting the binding response recorded from a blank control surfaces (or interspot surfaces), followed by subtracting buffer blank injections from the reaction surface. […]

A further assay has as its target T2, human ASGPR1 (Homo sapiens, UniProt P07306).
T2 construct: Recombinant extracellular domain of human ASGPR1 with N-terminal biotinylated Avitag
T2 sequence (P07306 62-291 limits assumed): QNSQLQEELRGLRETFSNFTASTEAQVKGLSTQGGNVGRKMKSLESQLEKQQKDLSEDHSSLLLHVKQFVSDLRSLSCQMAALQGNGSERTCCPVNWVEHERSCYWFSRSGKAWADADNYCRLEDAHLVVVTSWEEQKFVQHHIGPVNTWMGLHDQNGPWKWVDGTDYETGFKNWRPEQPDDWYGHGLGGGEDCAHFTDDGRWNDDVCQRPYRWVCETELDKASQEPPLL
Put plainly: ASGPR1 SPR direct binding (Biacore, SA chip). The conditions noted are these: Bifunctional Compound (FHR3 series), Table 7, read-out: ASGRR KD. The method, then:
SPR was used to obtain the binding data for ASGP receptor ligand compound (int-CC2), either alone or as part of the bifunctional compounds (BFC-13), (BFC-15) and (BFC16).
(§1) ASGPR1 SPR experiments were performed on either Biacore T200 or Biacore 8K. The assay was optimized for Biacore (Streptavidin) SA chip in running buffer consisting of 20 mM HEPES, 300 mM NaCl, 2 mM CaCl2, 0.01% tween-20, 2% DMSO, pH 7.4. Recombinant extracellular domain of human ASGPR1 with N-terminal biotinylated Avitag was diluted to 20 μg/mL in running buffer, and immobilized onto SA chip after it was preconditioned with at least four 60-second injections at 30 uL/min of 1 M NaCl/40 mM NaOH solution. Protein immobilization level varied from 500 RU to 3500 RU dependent on analytes' molecular weight, for targeted Rmax of 30 RUs. Direct binding of analytes to ASGPR1 was observed when a dose response titration of analytes in 2% DMSO was flown over the immobilized protein. Data analysis was done on either Biacore T200 Evaluation Software or Biacore Insight Evaluation Software.
SPR was used to obtain the binding data for ASGP receptor ligand compounds (int-CC2), either alone or as part of the bifunctional compounds (BFC1).
as §1, with “Biacore” for “Biacore (Streptavidin)”
(Surface plasmon resonance follows binding to a sensor surface in real time, without labels.)

The Kd is the equilibrium constant for the complex coming apart. Take `CC(=O)N[C@H]1[C@H](OCCCCC(=O)NCCCNC(=O)CCOCC(COCCC(=O)NCCCNC(=O)CCCCO[C@@H]2O[C@H](CO)[C@H](O)[C@H](O)[C@H]2NC(C)=O)(COCCC(=O)NCCCNC(=O)CCCCO[C@@H]2O[C@H](CO)[C@H](O)[C@H](O)[C@H]2NC(C)=O)NC(=O)CCOCCOCCOCCOCCOCCOCCOCCOCCOCCC(=O)NCCCC[C@@H]2NC(=O)[C@H](CCCNC(=N)N)NC(=O)[C@H](C)N(C)C(=O)[C@H](Cc3c[nH]c4ccccc34)NC(=O)[C@H](Cc3c[nH]cn3)NC(=O)[C@H](CC(C)C)NC(=O)[C@H](CO)NC(=O)[C@H](C)N(C)C(=O)[C@H](Cc3ccccc3)N(C)C(=O)[C@H](Cc3ccccc3)NC(=O)CSC[C@@H](C(=O)NCC(N)=O)NC(=O)[C@H](CCCNC(=N)N)NC(=O)[C@H](CC(=O)O)NC2=O)O[C@H](CO)[C@H](O)[C@@H]1O` [BFC-16]: the values for the dissociation constant Kd on FHR3 and at human ASGPR1 were 26 nM and 0.32 nM, respectively.
